Results published in patent US20250026724A1, “(1,4,5-TRISUBSTITUTED 1H-PYRAZOL-3-YL)OXY-2-ALKYLTHIOALKYL ACIDS AND -ALKYL ACID DERIVATIVES, SALTS THEREOF AND USE THEREOF AS ACTIVE HERBICIDAL INGREDIENTS” (BAYER AKTIENGESELLSCHAFT, priority 2021, published 2025).

System: Bassia scoparia (KCHSC)
Assay: Post-emergence herbicidal action, greenhouse pot trial
Type: in vivo
Details: 320 g/ha
Description: (§1) Seeds of monocotyledonous and dicotyledonous weeds and crop plants are placed in sandy loam in plastic or organic planting pots, covered with soil and cultivated in a greenhouse under controlled growth conditions. 2 to 3 weeks after sowing, the trial plants are treated at the one-leaf stage. The compounds of the invention, formulated in the form of wettable powders (WP) or as emulsion concentrates (EC), are then sprayed onto the green parts of the plants as aqueous suspension or emulsion with addition of 0.5% additive at a water application rate equivalent to 600 l/ha. After about 3 weeks of keeping the trial plants in the greenhouse under optimum growth conditions, the effect of the preparations is rated visually in comparison to untreated controls. For example, 100% activity=the plants have died, 0% activity=like control plants.
(§2) Tables B1 to B14 below show the effects of selected compounds of the general formula (I) according to Table 1 on various harmful plants and at an application rate corresponding to 320 g/ha or lower, which were obtained by the trial procedure specified above. The appendices “a”, “b” and “c” give differentiation by dosage used with otherwise the same harmful plants tested.
(§3) As shown by results from Tables B1 to B19, inventive compounds of the general formula (I) in the case of post-emergence treatment have good herbicidal efficacy against harmful plants, for example Abutilon theophrasti (ABUTH), Alopecurus myosuroides (ALOMY), Amaranthus retroflexus (AMARE), Avena fatua (AVEFA), Digitaria sanguinalis (DIGSA), Echinochloa crus-galli (ECHCG), Bassia scoparia (KCHSC), Lolium rigidum (LOLRI), Matricaria inodora (MATIN), Pharbitis purpurea (PHBPU), Polygonum convolvulus (POLCO), Setaria viridis (SETVI), Veronica persica (VERPE) and Viola tricolor (VIOTR) at an application rate of 320 g of active substance or less per hectare, and good crop plant compatibility in the case of organisms such as Oryza sativa (ORYSA), Zea mays (ZEAMX), Brassica napus (BRSNW), Glycine max (GLXMA) and Triticum aestivum (TRZAS) at an application rate of 320 g or less per hectare.

Compound	Post-emergence effect against KCHSC [%]
CSC(Oc1nn(-c2ncccc2F)c(-c2ccc(F)nc2)c1Br)C(=O)O (single isomer, unassigned) [Example I-25]	90

System: Alopecurus myosuroides (ALOMY)
Assay: as above
Type: in vivo
Details: Alopecurus myosuroides, 504 h, 320 g/ha, visual rating after about 3 weeks, read-out: Post-emergence effect at 320 g/ha against ALOMY in %
Description: as §1, §2, §3

Compound	pest or weed control at 320 g/ha [%]
CSC(Oc1nn(-c2ncccc2F)c(-c2ccc(F)nc2)c1Br)C(=O)O (single isomer, unassigned) [Example I-25]	90

System: Matricaria inodora (MATIN)
Assay: as above
Type: in vivo
Details: 320 g/ha, visual rating after about 3 weeks
Description: as §1, §2, §3

Compound	Post-emergence effect at 320 g/ha against MATIN in % [%]
CSC(Oc1nn(-c2ncccc2F)c(-c2ccc(F)nc2)c1Br)C(=O)O (single isomer, unassigned) [Example I-25]	80

System: Setaria viridis (SETVI)
Assay: as above
Type: in vivo
Details: 320 g/ha, visual rating after about 3 weeks
Description: as §1, §2, §3

Compound	Post-emergence effect at 320 g/ha against SETVI in % [%]
CSC(Oc1nn(-c2ncccc2F)c(-c2ccc(F)nc2)c1Br)C(=O)O (single isomer, unassigned) [Example I-25]	90

System: Avena fatua (AVEFA)
Assay: as above
Type: in vivo
Details: 320 g/ha, visual rating after about 3 weeks
Description: as §1, §2, §3

Compound	Post-emergence effect at 320 g/ha against AVEFA in % [%]
CSC(Oc1nn(-c2ncccc2F)c(-c2ccc(F)nc2)c1Br)C(=O)O (single isomer, unassigned) [Example I-25]	90

System: Viola tricolor (VIOTR)
Assay: as above
Type: in vivo
Details: 320 g/ha
Description: as §1, §2, §3

Compound	Post-emergence effect against VIOTR [%]
CSC(Oc1nn(-c2ncccc2F)c(-c2ccc(F)nc2)c1Br)C(=O)O (single isomer, unassigned) [Example I-25]	90

System: Digitaria sanguinalis (DIGSA)
Assay: as above
Type: in vivo
Details: 80 g/ha, visual rating after about 3 weeks
Description: as §1, §2, §3

Compound	Post-emergence effect at 80 g/ha against DIGSA in % [%]
CSC(Oc1nn(-c2ncccc2F)c(-c2ccc(F)nc2)c1Br)C(=O)O (single isomer, unassigned) [Example I-25]	80

Same assay, conditions: 320 g/ha, visual rating after about 3 weeks

Compound	Post-emergence effect at 320 g/ha against DIGSA in % [%]
CSC(Oc1nn(-c2ncccc2F)c(-c2ccc(F)nc2)c1Br)C(=O)O (single isomer, unassigned) [Example I-25]	90

System: Polygonum convolvulus (POLCO)
Assay: as above
Type: in vivo
Details: 320 g/ha, visual rating after about 3 weeks
Description: as §1, §2, §3

Compound	Post-emergence effect at 320 g/ha against POLCO in % [%]
CSC(Oc1nn(-c2ncccc2F)c(-c2ccc(F)nc2)c1Br)C(=O)O (single isomer, unassigned) [Example I-25]	80

Same assay, conditions: Fallopia convolvulus, 504 h, 80 g/ha, visual rating after about 3 weeks, read-out: Post-emergence effect at 80 g/ha against POLCO in %

Compound	pest or weed control at 80 g/ha [%]
CSC(Oc1nn(-c2ncccc2F)c(-c2ccc(F)nc2)c1Br)C(=O)O (single isomer, unassigned) [Example I-25]	80

System: Amaranthus retroflexus (AMARE)
Assay: as above
Type: in vivo
Details: 320 g/ha, visual rating after about 3 weeks
Description: as §1, §2, §3

Compound	Post-emergence effect at 320 g/ha against AMARE in % [%]
CSC(Oc1nn(-c2ncccc2F)c(-c2ccc(F)nc2)c1Br)C(=O)O (single isomer, unassigned) [Example I-25]	90

Same assay, conditions: Amaranthus retroflexus, 504 h, 80 g/ha, visual rating after about 3 weeks, read-out: Post-emergence effect at 80 g/ha against AMARE in %

Compound	pest or weed control at 80 g/ha [%]
CSC(Oc1nn(-c2ncccc2F)c(-c2ccc(F)nc2)c1Br)C(=O)O (single isomer, unassigned) [Example I-25]	90

System: Echinochloa crus-galli (ECHCG)
Assay: as above
Type: in vivo
Details: 320 g/ha, visual rating after about 3 weeks
Description: as §1, §2, §3

Compound	Post-emergence effect at 320 g/ha against ECHCG in % [%]
CSC(Oc1nn(-c2ncccc2F)c(-c2ccc(F)nc2)c1Br)C(=O)O (single isomer, unassigned) [Example I-25]	90

Same assay, conditions: Echinochloa crus-galli, 504 h, 80 g/ha, visual rating after about 3 weeks, read-out: Post-emergence effect at 80 g/ha against ECHCG in %

Compound	pest or weed control at 80 g/ha [%]
CSC(Oc1nn(-c2ncccc2F)c(-c2ccc(F)nc2)c1Br)C(=O)O (single isomer, unassigned) [Example I-25]	80

System: Abutilon theophrasti (ABUTH)
Assay: as above
Type: in vivo
Details: 320 g/ha, visual rating after about 3 weeks
Description: as §1, §2, §3

Compound	Post-emergence effect at 320 g/ha against ABUTH in % [%]
CSC(Oc1nn(-c2ncccc2F)c(-c2ccc(F)nc2)c1Br)C(=O)O (single isomer, unassigned) [Example I-25]	90

System: Pharbitis purpurea (PHBPU)
Assay: as above
Type: in vivo
Details: 80 g/ha, visual rating after about 3 weeks
Description: as §1, §2, §3

Compound	Post-emergence effect at 80 g/ha against PHBPU in % [%]
CSC(Oc1nn(-c2ncccc2F)c(-c2ccc(F)nc2)c1Br)C(=O)O (single isomer, unassigned) [Example I-25]	90

Same assay, conditions: 320 g/ha, visual rating after about 3 weeks

Compound	Post-emergence effect at 320 g/ha against PHBPU in % [%]
CSC(Oc1nn(-c2ncccc2F)c(-c2ccc(F)nc2)c1Br)C(=O)O (single isomer, unassigned) [Example I-25]	90
